Laboratory results taken from patent publication US4508663A, “Process for preparing thiosulfenamide derivatives of N-phosphonomethylglycinonitriles” (Monsanto Company, priority 1983, dated 1985).

What was measured:
Assay in all cases: post-emergence herbicidal activity, greenhouse
Type in all cases: in vivo
Conditions in all cases: Table I, 4 WAT
[1] = tested on: Barnyardgrass
Excerpt: (§1) A good grade of top soil is placed in aluminum pans having holes in the bottom and compacted to a depth of 0.95 to 1.27 cm. from the top of the pan. A predetermined number of seeds of each of several dicotyledonous and monocotyledonous annual plant species and/or vegetative propagules for the perennial plant species are placed on the soil and pressed into the soil surface. The seeds and/or vegetative propagules are covered with soil and leveled. The pans are then placed on a sand bench in the greenhouse and watered from below as needed. After the plants reach the desired age (two to three weeks), each pan except for the control pans is removed individually to a spraying chamber and sprayed by means of an atomizer operating at a positive air pressure of approximately 1.46 kg/cm^2 absolute. The atomizer contains 6 ml. of a solution or suspension of the chemical. In that 6 ml., is an amount of a cyclohexanone emulsifying agent mixture to give a spray solution or suspension which contains about 0.4% by weight of the emulsifier. The spray solution or suspension contains a sufficient amount of the candidate chemical in order to give application rates corresponding to those set forth in the tables. The spray solution is prepared by taking an aliquot of a 1.0% by weight stock solution or suspension of the candidate chemical in an organic solvent such as acetone or tetrahydrofuran or in water. The emulsifying agent employed is a mixture comprising 35 weight percent butylamine dodecylbenzene sulfonate and 65 weight percent of a tall oil ethylene oxide condensate having about 11 moles of ethylene oxide per mole of tall oil. The pans are returned to the greenhouse and watered as before and the injury to the plants as compared to the control is observed at approximately two and four weeks as indicated in the tables under WAT and the results recorded. In some instances, the two-week observations are omitted.
(§2) The post-emergence herbicidal activity index used in Table I is as follows: […]

[2] = tested on: Canada Thistle
Excerpt: as §1, §2

[3] = tested on: Cocklebur
Excerpt: as §1, §2

[4] = tested on: Downy Brome
Excerpt: as §1, §2

[5] = tested on: Johnsongrass
Excerpt: as §1, §2

[6] = tested on: Lambsquarters
Excerpt: as §1, §2

[7] = tested on: Morningglory
Excerpt: as §1, §2

[8] = tested on: Quackgrass
Excerpt: as §1, §2

[9] = tested on: Smartweed
Excerpt: as §1, §2

[10] = tested on: Velvetleaf
Excerpt: as §1, §2

[11] = tested on: Yellow Nutsedge
Excerpt: as §1, §2

In the case of `CCCCCCCCSSN(CC#N)CP(=O)(Oc1ccccc1)Oc1ccccc1` [II, Phosphonic acid, [[(cyanomethyl)(octyldithio)-amino]methyl]-, diphenyl ester], the “post-emergence herbicidal activity index” value ([1]; 5.6 kg/h) is reported as 1 (25-49% control), the “post-emergence herbicidal activity index” value ([1]; 11.2 kg/h) is reported as 2 (50-74% control) and the “post-emergence herbicidal activity index” value ([2]; 5.6 kg/h) is reported as 1 (25-49% control). The “post-emergence herbicidal activity index” value ([2]; 11.2 kg/h) was 1 (25-49% control), the “post-emergence herbicidal activity index” value ([3]; 5.6 kg/h) was 2 (50-74% control) and the “post-emergence herbicidal activity index” value ([3]; 11.2 kg/h) was 2 (50-74% control). For the same compound, the “post-emergence herbicidal activity index” value ([4]; 5.6 kg/h) was 1 (25-49% control), the “post-emergence herbicidal activity index” value ([4]; 11.2 kg/h) was 0 (0-24% control) and the “post-emergence herbicidal activity index” value ([5]; 5.6 kg/h) was 3 (75-99% control). The “post-emergence herbicidal activity index” value ([5]; 11.2 kg/h) was 2 (50-74% control), the “post-emergence herbicidal activity index” value ([6]; 5.6 kg/h) was 3 (75-99% control) and the “post-emergence herbicidal activity index” value ([6]; 11.2 kg/h) was 3 (75-99% control). For the same compound, the “post-emergence herbicidal activity index” value ([7]; 5.6 kg/h) was 2 (50-74% control), the “post-emergence herbicidal activity index” value ([7]; 11.2 kg/h) was 2 (50-74% control) and the “post-emergence herbicidal activity index” value ([8]; 5.6 kg/h) was 0 (0-24% control). The “post-emergence herbicidal activity index” value ([8]; 11.2 kg/h) was 1 (25-49% control), the “post-emergence herbicidal activity index” value ([9]; 5.6 kg/h) was 0 (0-24% control) and the “post-emergence herbicidal activity index” value ([9]; 11.2 kg/h) was 1 (25-49% control). The “post-emergence herbicidal activity index” value ([10]; 5.6 kg/h) was 1 (25-49% control), the “post-emergence herbicidal activity index” value ([10]; 11.2 kg/h) was 1 (25-49% control) and the “post-emergence herbicidal activity index” value ([11]; 5.6 kg/h) was 2 (50-74% control). The “post-emergence herbicidal activity index” value ([11]; 11.2 kg/h) was 2 (50-74% control).
